Results as given in patent US7687473B2, “5-amino-4-imidazolecarboxamide riboside and its nucleobase as potentiators of antifolate transport and metabolism” (Health Research, Inc., priority 2005, dated 2010).
Blank lines part the entries; values can stand above or below the molecule they belong to.

What was measured:
[1] = system: CCRF-CEM human leukemia cells; assay: Synthesis of methotrexate polyglutamates by CCRF-CEM cells; format: cell-based
Procedure: MTX polyglutamate synthesis. […] At the end of the exposure cells were rapidly chilled to 4 degrees C., harvested by centrifugation at 1000×g for 5 min, washed twice with iced 0.9% NaCl by centrifugation in the same manner. One mL of boiling 50 mM Na-phosphate, pH 5.5 was added, the pellet was triturated and the sample boiled for 5 min. The sample was rapidly cooled to 4 degrees C. Debris was removed by centrifugation as above. The supernatant was further clarified by centrifugation through an Amicon MPS-1 filter unit. […] A suitable volume was injected onto a reversed-phase HPLC column (C18) and eluted with a gradient of from 4-14% acetonitrile over about 43 min. One min fractions were collected and, after addition of 10 ml scintillation fluid, were quantitated by liquid scintillation counting.

CCRF-CEM cells [2] = assay: [3H]MTX uptake (initial velocity and 30 min accumulation) in CCRF-CEM cells; format: cell-based, human; conditions: for Q10 for extent of [3H]MTX uptake at 30 min / Q10 for vi of [3H]MTX uptake (37° vs. 27°): 1 μM TMTX; for Vmax/Kt from vi (0-5 min) data: 1-10 μM MTX
Procedure: (§1) Quantitation of folate and antifolate uptake. The method is essentially as follows. Briefly, logarithmically growing (3-5×10^5/ml) CCRF-CEM cells were harvested at room temperature by centrifugation at 1000×g for 5 min. After washing with the appropriate medium, cells were suspended at ≈2×10^7 cells/ml for use in transport studies. […] Anion-free MHS contains 250 mM sucrose and 20 mM HEPES, titrated to pH 7.4 with MgO. […] Uptake was measured as a function of time for 30 min (for rate and extent measurements) or over 5 min (studies requiring initial velocities). […] Uptake was terminated by diluting 100 μL samples into 1 ml of iced 0.9% NaCl. […] The supernatant was aspirated. The cell pellet was washed once with 1 ml iced 0.9% NaCl and centrifuged as above. The washed pellet was solubilized in 1 ml of 0.3% Triton X-100 by incubation for 60 min at 37° C. The solubilized pellet was transferred to a scintillation vial, 10 ml of Liquiscint (National Diagnostics, Atlanta, Ga.) was added and radioactivity was quantitated in a Beckman Model LS6500 liquid scintillation counter. Separate samples at the longest incubation time used in a particular experiment were harvested for HPLC analysis of intracellular contents as above, except that after the second wash the pellets were extracted with 1 ml boiling 0.1 M Na-phosphate, pH 5.5. The extract was clarified by centrifugation and the supernatant was filtered through an MPS-1 filter unit (Amicon) prior to HPLC analysis.

[3] = molecular target: T1, reduced folate carrier (RFC) (Homo sapiens, UniProt P41440); assay: Kinetic constants for influx of [3H]MTX by CCRF-CEM cells; format: cell-based
T1 construct: endogenous in cells; host or cells: CCRF-CEM (parental)
T1 sequence (P41440 1-591): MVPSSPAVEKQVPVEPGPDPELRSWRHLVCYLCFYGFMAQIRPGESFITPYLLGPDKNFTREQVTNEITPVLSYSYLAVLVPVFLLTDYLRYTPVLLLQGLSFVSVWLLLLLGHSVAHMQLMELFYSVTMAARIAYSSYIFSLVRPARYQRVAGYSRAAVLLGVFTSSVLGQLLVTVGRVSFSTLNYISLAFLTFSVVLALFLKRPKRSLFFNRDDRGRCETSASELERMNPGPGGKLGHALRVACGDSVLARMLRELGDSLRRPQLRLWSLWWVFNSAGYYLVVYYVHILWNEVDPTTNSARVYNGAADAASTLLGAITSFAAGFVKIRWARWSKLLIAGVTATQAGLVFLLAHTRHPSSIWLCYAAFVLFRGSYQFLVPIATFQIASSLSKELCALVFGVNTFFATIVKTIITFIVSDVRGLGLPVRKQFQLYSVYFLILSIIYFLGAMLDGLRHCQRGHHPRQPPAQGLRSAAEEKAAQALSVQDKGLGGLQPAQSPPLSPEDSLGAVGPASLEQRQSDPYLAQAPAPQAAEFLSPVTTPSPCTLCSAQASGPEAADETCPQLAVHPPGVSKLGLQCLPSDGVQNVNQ
Procedure: as §1
Inhibition of the vi of uptake was measured after pre-incubation of CCRF-CEM cells either with TMTX alone (measuring inhibition at the RFC) or with TMTX+Z (measuring inhibition during Z potentiation). […] All studies were carried out in standard transport medium. Inhibitory potency was measured in two series of experiments and AMT was included in each series as an internal control. Values are average±range of two determinations. […] Values are average±range for duplicate determinations.

[4] = system: dCK-deficient subline of CCRF-CEM; assay: [3H]MTX uptake in deoxycytidine kinase-deficient subline; format: cell-based, human; conditions: compared to parental CCRF-CEM
Procedure: Z metabolism by deoxycytidine kinase is not essential for Z potentiation. These experiments were conducted to determine if Z itself can cause potentiation orf needs to be metabolized to exert its effect. For these experiments, a deoxycytidine kinase (dCK)-deficient subline of CCRF-CEM was used. Although designated as dCK, this enzyme also phosphorylates the purines deoxyadenosine, deoxyguanosine, and fludarabine. Use of this subline allowed us to test the hypothesis that phosphorylation of Z to ZMP by dCK is essential for potentiation. […] Thus it appears that dCK is not absolutely required for Z potentiation, but may contribute to the metabolism.

CCRF-CEM cells [5] = assay: [3H]MTX efflux from CCRF-CEM cells
[6] = system: R2 (MTX-resistant CCRF-CEM subline); assay: Inhibition of growth of RFC-defective subline R2; format: cell-based; conditions: Homo sapiens, continuous exposure, no Z, read-out: EC50 against R2
Procedure: Inhibition of growth of human cell lines in vitro. Inhibition of growth of CCRF-CEM in continuous and intermittent drug exposures was measured. EC50 values were determined from plots of percent control growth versus the logarithm of drug concentration.
TMTX was present in both conditions to establish DHFR inhibition, since that appears to be required.

[7] = 500 μM Z, 4 hr exposure to 2 μM [3H]MTX
[8] = 4 hr exposure to 2 μM [3H]MTX, Z 500 μM where present
[9] = influx of [3H]MTX, pre-incubation with solvent (MTX alone), 1 μM TMTX, or 1 μM TMTX + 0.5 mM Z

Increase of Vmax of MTX influx ([3]; Z addition in presence of TMTX): ≈ 3 fold
Structure (SMILES): NC(=O)c1ncn([C@@H]2O[C@H](CO)[C@@H](O)[C@H]2O)c1N [Z, 5-amino-4-imidazolecarboxamide riboside]
Increase of MTX polyglutamates (n≧2) accumulation [1, 7]: 3.5 fold
Increase of longer MTX polyglutamates (n≧3) [1, 7]: 6 fold
Increase of total drug accumulation [1, 7]: 3 fold
MTXGn accumulation at 1 and 10 μM [3H]MTX ([1]; 500 μM Z, data not shown): Increased MTXGn accumulation
Drug retained after 2 hr efflux following 4 hr uptake ([1]; cells initially treated with Z, data not shown): much higher levels of drug
Potentiation of 30 min accumulation (highest) (CCRF-CEM cells [2]; 0.5 mM Z, 10 μM [3H]MTX): 6 fold
Potentiation of accumulation at 30 min (CCRF-CEM cells [2]; 0.5 mM Z, HBSS): ≈ 4 fold
Potentiation of accumulation at 30 min (CCRF-CEM cells [2]; 0.5 mM Z, MHS): ≈ 2 fold
Potentiation of accumulation at 30 min (CCRF-CEM cells [2]; 0.5 mM Z, standard medium): ≈ 2 fold
Effect on initial influx velocity (vi; 0-5 min) (CCRF-CEM cells [2]; Z added 5 min before 2 μM [3H]MTX): does not affect vi
Delay before potentiation of [3H]MTX uptake (CCRF-CEM cells [2]; Z added 10 min after [3H]MTX, data not shown): ≥ 5 min
Increase of MTX accumulation at 30 min (CCRF-CEM cells [2]; Z at 0.5-1.0 mM, 2 μM [3H]MTX): ≥ 3 fold
Onset of potentiation of [3H]MTX uptake (CCRF-CEM cells [2]; Z present with TMTX in 10 min preincubation): no delay in potentiation
Delay before the onset of Z potentiation (CCRF-CEM cells [2]; all levels of MTX (1-10 μM), 0.5 mM Z): ≈ 10 min
Potentiation of [3H]MTX uptake in dCK-deficient subline [4]: showed potentiation by Z, although to a slightly lower level
Effect on MTX efflux rates (CCRF-CEM cells [5]; 0.5 mM Z during uptake and/or efflux): No significant difference

Kt [3, 9]: 3.0 ± 0.8 µM
Vmax [3, 9]: 5.8 ± 0.9 pmol/min/10^7 cells
EC50 [6]: 2200 nM
Structure (SMILES): CN(Cc1cnc2nc(N)nc(N)c2n1)c1ccc(C(=O)N[C@@H](CCC(=O)O)C(=O)O)cc1 [MTX, 4-amino-10-methylpteroylglutamic acid]
4-NH2-10-CH3-PteGlun, N ≧ 3 [1, 8]: 3.8 pmol/10^7 cells
4-NH2-10-CH3-PteGlun, n = 1 (MTX) [1, 8]: 26.2 pmol/10^7 cells
4-NH2-10-CH3-PteGlun, n = 2 [1, 8]: 23.8 pmol/10^7 cells
4-NH2-10-CH3-PteGlun, n = 3 [1, 8]: 2.3 pmol/10^7 cells
4-NH2-10-CH3-PteGlun, n = 4 [1, 8]: 1.4 pmol/10^7 cells
4-NH2-10-CH3-PteGlun, n = 5 [1, 8]: 0.1 pmol/10^7 cells
4-NH2-10-CH3-PteGlun, n ≧ 2 [1, 8]: 27.6 pmol/10^7 cells
Total drug [1, 8]: 53.8 pmol/10^7 cells
Intracellular radiolabel that is MTX at 30 min (HPLC) (CCRF-CEM cells [2]; absence of Z): 86%
Intracellular radiolabel that is MTX-γ-Glu at 30 min (HPLC) (CCRF-CEM cells [2]; absence of Z): 12%
Q10 for extent of [3H]MTX uptake at 30 min (CCRF-CEM cells [2]; absence of Z): 3.45±0.15
Q10 for vi of [3H]MTX uptake (37° vs. 27°) (CCRF-CEM cells [2]; absence of Z): 4.6±0.3
Vmax/Kt from vi (0-5 min) data (CCRF-CEM cells [2]; absence of Z): 0.44
Q10 for extent of [3H]MTX uptake at 30 min (CCRF-CEM cells [2]; presence of 0.5 mM Z): 3.65±0.15
Q10 for vi of [3H]MTX uptake (37° vs. 27°) (CCRF-CEM cells [2]; presence of 0.5 mM Z): 5.9±0.1
[MTX]i/[MTX]e at 30 min (CCRF-CEM cells [2]; presence of 0.5 mM Z, all MTX concentrations 1-10 μM, assuming 0.55 pL/cell): ≥ 1.9
Vmax/Kt from vi (0-5 min) data (CCRF-CEM cells [2]; presence of 0.5 mM Z): 0.47
Intracellular radiolabel that is MTX at 30 min (HPLC) (CCRF-CEM cells [2]; presence of Z): 83%
Intracellular radiolabel that is MTX-γ-(Glu)2 at 30 min (HPLC) (CCRF-CEM cells [2]; presence of Z): < 1%
Intracellular radiolabel that is MTX-γ-Glu at 30 min (HPLC) (CCRF-CEM cells [2]; presence of Z): 7.5%
Efflux t1/2 (CCRF-CEM cells [5]; loading and efflux each ±0.5 mM Z (cross-over), 2 μM [3H]MTX): 14.6 to 18.7 min
